From US20100297676A1, “METHODS FOR DIAGNOSIS, PROGNOSIS AND METHODS OF TREATMENT” (Nodality, Inc., priority 2009, published 2010)

Assays:
healthy B cells = conditions: B cells from healthy donors; anti-μ 10 μg/ml plus H2O2 […], 10 min
Method: Cryopreserved PBMCs, 23 from CLL patients and 7 from healthy donors, were rapidly thawed in a 37° C. water bath. 1 mL of pre-warmed thawing media (PBS 1% FBS, 2 mM EDTA) was added dropwise to each of the cryovials. Thawed cells were transferred to a tube containing 8 mL thawing media. Tubes were inverted and centrifuged at 200×g for 8 minutes at room temperature. Supernatant was decanted, cell pellets were resuspended in 1 mL RPMI 1640 1% FCS and filtered over 70 um nylon mesh (BD Falcon) to remove cell clumps and debris. 11 mL of additional RPMI 1640 1% FCS was added to the samples to wash. […]
Supernatant was aspirated and each sample was resuspended in 4 mL of PBS. […] The supernatant was decanted and all samples were resuspended at a density of 2.4×10^6 cells/mL, using a volume specific to the number of cells determined from the cell counting procedure. […]
“Daughter” plates designated for treatment with modulators for or apoptosis inducing agents were generated from the “mother” plate with the use of a Liquidator 96-well pipettor (Rainin) Plates designated for treatment with modulators for phospho-readouts received 250 uL (6.0×10^5 cells) of cell suspension per well, and plates designated for treatment with apoptosis inducing agents received 333 uL (8.0×10^5 cells) of cell suspension per well. […]
Antibody cocktails for signaling and apoptosis readouts were prepared in FACS Buffer. […]

CLL cells = conditions: in vitro treatment; Buchner 2009, Gobessi 2009; cited from earlier work

| Compound | effect of H2O2 on anti-μ-mediated BCR signaling (healthy B cells) | apoptotic response of CLL cells (CLL cells) |
| --- | --- | --- |
| OO [H2O2, hydrogen peroxide] | further potentiated | – |
| COc1cc(Nc2ncc(F)c(Nc3ccc4c(n3)NC(=O)C(C)(C)O4)n2)cc(OC)c1OC [R406] | – | mediated an apoptotic response |
